Test results reported in patent publication US20260132128A1, “COMPOUND FOR RECOVERING P53 MUTATION FUNCTION AND USE THEREOF” (SHENZHEN ZHONGGE BIOLOGICAL TECHNOLOGY CO., LTD., priority 2022, published 2026).
Marks after values point to notes of the source that are not given here.

Assays:
[1] = target: T1, p53 Y220C (Homo sapiens, UniProt P04637, P309S/R273H/Y220C); experiment: DNA binding test (HTRF): binding of P53Y220C protein to DNA; assay type: biochemical; conditions: HTRF, activation of p53 Y220C (aa 94-312) binding to biotin DNA
T1 construct: a truncated mutant containing only amino acids 94-312 of p53; made in house; host or cells: E. coli
Description: (§1) In order to detect the ability of the aforementioned compounds to increase the binding of P53Y220C protein to DNA, the binding activity of p53 Y220C was measured by homogeneous time-resolved fluorescence (HTRF). Recombinant His-tagged p53 Y220C for HTRF measurement was expressed in bacteria E. coli. The recombinant protein was a truncated mutant containing only amino acids 94-312 of p53, and its sequence was […] […] VEGNLR […] TFRh[…] […]. The sense strand of the DNA double strand was 5′-[…]-3′, with a biotin tag at the 5′ end for activity assay, and the antisense strand was 5′-[…]-3′ 40 mL of assay buffer (20 mM Tris HCL, pH 7.5, 50 mM NaCl, 2 mM MgCl2, 0.02% Tween 20, 0.01% BSA, 1 mM DTT) was prepared. 10 mM compound was prepared and subjected to 3-fold dilution to obtain 10 dose gradient dilutions of the compound. 20 nL of the compound was added to a 384-well assay plate (PerkinElmer 6007299) using an Echo 655 Liquid Handler. P53Y220C protein was dissolved in assay buffer to reach a final concentration of 150 nM, and 5 μL thereof was added to each well, and incubated at room temperature for 5 min. DNA was dissolved in assay buffer to reach a final concentration of 150 nM, and 5 μL thereof was added to each well, and incubated at room temperature for 15 min. Anti 6HIS-XL665 (Cisbio 61HISXLB) was dissolved in assay buffer to reach a final concentration of 20 nM, and 5 μL thereof was added to each well. Streptavidin-Eu cryptate (Cisbio 610SAKLA) was dissolved in assay buffer to reach a final concentration of 0.625 nM, and 5 μL thereof was added to each well, and incubated at 27° C. for 1 hour. The plate was then read for signal values on an Envision (PerkinElmer 2105-0020) plate reader at 665 nm and 615 nm, respectively. […] Activation rate={(A-C)/(C)}*100%, A=(signal value at 665 nm/signal value at 615 nm); C=average signal of negative control (wherein, negative control referred to 0.1% DMSO).

[2] = target: T2, p53 Y220C (Homo sapiens, UniProt P04637, Y220C); experiment: as above; assay type: biochemical; conditions: multiple ratio of EC50 of the compound to the reference compound, DNA binding test
T2 construct: a truncated mutant containing only amino acids 94-312 of p53; made in house; host or cells: E. coli
Description: as §1

[3] = system: NUGC-3 cells; experiment: NUGC-3 cell proliferation assay (CTG); assay type: cell-based, human; conditions: for GI50: 6 days, CTG; for Compound GI50 (nM)/Reference compound GI50 (nM): multiple ratio of GI50 of the compound to the reference compound
Description: In order to detect the inhibitory effect of the aforementioned compounds on the proliferation ability of NUGC-3 cells, 250 NUGC-3 cells (Nanjing Cobioer Biosciences Co., Ltd., CBP60492) were seeded into a 384-well plate (Corning 3765), 35 μL per well, and incubated overnight in a constant temperature incubator at 37° C. and 5% CO2. Then, 40 nL of the compound was added to the 384-well plate using an Echo 655 Liquid Handler, with a maximum final concentration of 10 μM, 1:3 serial dilutions, and a total of 10 doses. The culture was performed at 37° C. and 5% CO2 for 6 days. The plate was taken out from the incubator and equilibrated at room temperature for 10 minutes. 20 μL of CTG (Promage G7572) was added to each well of the plate according to the platemap. The plate was centrifuged at 1000 rpm for 1 min. The lysis of cells was induced by mixing on a shaker for 2 min. The plate was centrifuged at 1000 rpm for 1 min. Incubation was performed at room temperature for 10 min to stabilize luminescence signals. Luminescence values were recorded by Envision (PerkinElmer 2105-0020). GraphPad 9.0 was used to fit the inhibition rate and compound concentration into a nonlinear regression curve (dose response-variable slope) to calculate GI50, inhibition rate={1−(A−B)/(C−B)}*100%, A=signal value of compound; B=average signal of blank control; C=average signal of negative control (wherein negative control was 0.1% DMSO).

SMILES | EC50 [1] [nM] | Compound EC50 (nM)/Reference compound EC50 (nM) [2] | GI50 [3] [nM] | Compound GI50 (nM)/Reference compound GI50 (nM) [3] | GI50 ([3]; Homo sapiens, NUGC-3, 144 h) [nM]
CNC(=O)c1ccc(NCC#Cc2nc3c(NC4CCC(N5CC6(COC6)C5)CC4F)cccn3c2CC(F)(F)F)c(OC)c1 (single isomer, unassigned) [Compound 35-6g] | 100 to 500 | C (C: EC50 of the compound≥3*EC50 of the reference compound) | ≥ 5000 | C (C: GI50 of the compound ≥ 3 * GI50 of the reference compound) | 
COc1cc(C(=O)NC2CCOCC2)ccc1NCC#Cc1nc2c(NC3CCN(C)CC3)cccn2c1CC(F)(F)F [Compound 29] | 100 to 500 | C (C: EC50 of the compound≥3*EC50 of the reference compound) |  | C (C: GI50 of the compound ≥ 3 * GI50 of the reference compound) | 1000 to 5000
CNC(=O)c1ccc(NCC#Cc2nc3c(NC4CCN(C)CC4)cncn3c2CC(F)(F)F)c(OC)c1 [Compound 2] | ≥ 1000 | C (C: EC50 of the compound≥3*EC50 of the reference compound) |  | C (C: GI50 of the compound ≥ 3 * GI50 of the reference compound) | 
COc1cc(-c2nccs2)ccc1NCC#Cc1nc2c(NC3CCN(C)CC3)cccn2c1CC(F)(F)F [Compound 16] | 100 to 500 | C (C: EC50 of the compound≥3*EC50 of the reference compound) |  | C (C: GI50 of the compound ≥ 3 * GI50 of the reference compound) | ≥ 5000
[2H]C([2H])([2H])NC(=O)c1ccc(NCC#Cc2cc3c(NC4CCC(N5CC6(COC6)C5)CC4F)cccn3c2CC(F)(F)F)c(OC2CC2)c1 (centres unmarked) [Compound 76d] | < 100 | A (A: EC50 of the compound≤EC50 of the reference compound) |  | A (A: GI50 of the compound ≤ GI50 of the reference compound) | < 1000
COc1cc(S(=N)(=O)C2CC2)ccc1NCC#Cc1cc2c(NC3CCN(C)CC3F)cccc2n1CC(F)(F)F (single isomer, unassigned) [Compound 39c] | < 100 | B (B: EC50 of the reference compound<EC50 of the compound≤3.0*EC50 of the reference compound) |  | A (A: GI50 of the compound ≤ GI50 of the reference compound) | 
COc1cc(S(N)(=O)=O)ccc1NCC#Cc1nc2c(NC3CCN(C)CC3)cccn2c1CC(F)(F)F [Compound 12] | 100 to 500 | B (B: EC50 of the reference compound<EC50 of the compound≤3.0*EC50 of the reference compound) |  | C (C: GI50 of the compound ≥ 3 * GI50 of the reference compound) | ≥ 5000
CNC(=O)c1ccc(NCC#Cc2nc3c(NC4CC[C@@H](N5CCC5)C[C@@H]4F)cccn3c2CC(F)(F)F)c(OC)c1 (some centres unmarked) [Compound 40] | < 100 | B (B: EC50 of the reference compound<EC50 of the compound≤3.0*EC50 of the reference compound) |  | B (B: GI50 of the reference compound < GI50 of the compound ≤ 3.0 * GI50 of the reference compound) | < 1000
COCCNC(=O)c1ccc(NCC#Cc2nc3c(NC4CCN(C)CC4)cccn3c2CC(F)(F)F)c(OC)c1 [Compound 30] | 100 to 500 | C (C: EC50 of the compound≥3*EC50 of the reference compound) |  | C (C: GI50 of the compound ≥ 3 * GI50 of the reference compound) | 1000 to 5000
CNC(=O)c1ccc(NCC#Cc2nc3c(NC4CCC(C)(O)CC4)cccn3c2CC(F)(F)F)c(OC)c1 (centres unmarked) [Compound 25] | 100 to 500 | C (C: EC50 of the compound≥3*EC50 of the reference compound) |  | C (C: GI50 of the compound ≥ 3 * GI50 of the reference compound) | ≥ 5000
